The record followed here is EP4205733B1, “COMPOSITION FOR THE TREATMENT OF OSTEOPENIA AND OSTEOPOROSIS” (MIVELL S.R.L.S., priority 2021, dated 2023).

A short description of series [1]: Solubility test. The series is classed as physicochemical. An excerpt: Before proceeding with the cellular assays, the two ingredients have been tested for their solubility in several solvents, with the aim of identifying the best solubilizing agent (Table 2).
Series [2] concerns IL-1β. Description: RTqPCR of mRNA levels of inflammatory cytokine IL-1β. The series is classed as cell-based, human. Conditions: senescent BM-MSCs, 48h, vs untreated senescent BM-MSCs. As to the method: (§1) The experiments were conducted on mesenchymal stromal cells obtained from the bone marrow of a donor: BM-MSCs (Promocell). BM-MSCs were cultured in medium maintenance MSC-GM2 (PromoCell) with the addition of Supplement Mix and Penicillin-Streptomycin 1%, in humid atmosphere at 37°C, with 5% CO2. The proliferative capacity of this cell model was evaluated and characterized and the cellular senescence was assessed using p16, p21 expression and beta-galactosidase activity (data not shown). […]
(§2) The anti-inflammatory activity of the individual ingredients and the synergy between them have been assessed by the measurement of mRNA levels of the cytokines involved in inflammatory processes: IL-1β, IL-6, IL-8 and MCP-1 [Lencel et al., 2011; Mulholland et al., 2019]. […]
(§3) The pro-osteogenic activity of the individual components (pro-mineralizing and anti-inflammatory) and their combination was firstly determined through the analysis of the modulation of the mRNA levels of the osteogenic marker COL1α1 in young BM-MSCs cells. […] Furthermore, the pro-mineralizing and anti-inflammatory activity of the individual components and their combination was determined through the analysis of the modulation of the mRNA levels of the osteogenic marker ALP and of the pro-inflammatory markers IL-1β and MCP-1 in senescent BM-MSCs cells. […]
Background: Quantitative PCR measures a nucleic acid by following its amplification.

Series [3] relates to MCP-1. Description: RTqPCR of mRNA levels of inflammatory cytokine MCP-1. The series is classed as cell-based, human. Conditions: senescent BM-MSCs, 48h, vs untreated senescent BM-MSCs. As to the method: as §1, §2, §3

Take `CC(C)=CCC/C(C)=C/CC/C(C)=C/CC/C(C)=C/CC/C(C)=C/CC/C(C)=C/CC/C(C)=C/CC1=C(C)C(=O)c2ccccc2C1=O` [Vitamin K2, Menaquinone-7]: in series [1] (organic solvents), the “Solubility test results: Organic solvents” value is “Not soluble”. Further, the “Solubility test results: Cremophor” value in series [1] (solvent Cremophor) is listed as “Soluble”. For the same molecule, in series [1] (solvent DMSO), the “Solubility test results: DMSO” value is reported as “Not soluble”. In addition, the “Solubility test results: PBS” value in series [1] (solvent PBS) is listed as “Not soluble”.
Consider `OC[C@H]1O[C@@H](Oc2cc(O)cc(/C=C/c3ccc(O)cc3)c2)[C@H](O)[C@@H](O)[C@@H]1O` [polydatin], for which the “IL-1β mRNA levels” value in series [2] is reported as “significantly decrease”. Besides, the “MCP-1 mRNA levels” value in series [3] was “significantly decrease”.
